Data taken from patent publication US8431704B2, “Quinoline or isoquinoline substituted P2X7 antagonists” (Janssen Pharmaceutica NV, priority 2008, dated 2013).

Molecular target: T1, P2X7 (Homo sapiens, UniProt Q99572)
T1 construct: endogenous in cells; host or cells: THP-1 human monocytic cell line
T1 sequence (Q99572 1-595): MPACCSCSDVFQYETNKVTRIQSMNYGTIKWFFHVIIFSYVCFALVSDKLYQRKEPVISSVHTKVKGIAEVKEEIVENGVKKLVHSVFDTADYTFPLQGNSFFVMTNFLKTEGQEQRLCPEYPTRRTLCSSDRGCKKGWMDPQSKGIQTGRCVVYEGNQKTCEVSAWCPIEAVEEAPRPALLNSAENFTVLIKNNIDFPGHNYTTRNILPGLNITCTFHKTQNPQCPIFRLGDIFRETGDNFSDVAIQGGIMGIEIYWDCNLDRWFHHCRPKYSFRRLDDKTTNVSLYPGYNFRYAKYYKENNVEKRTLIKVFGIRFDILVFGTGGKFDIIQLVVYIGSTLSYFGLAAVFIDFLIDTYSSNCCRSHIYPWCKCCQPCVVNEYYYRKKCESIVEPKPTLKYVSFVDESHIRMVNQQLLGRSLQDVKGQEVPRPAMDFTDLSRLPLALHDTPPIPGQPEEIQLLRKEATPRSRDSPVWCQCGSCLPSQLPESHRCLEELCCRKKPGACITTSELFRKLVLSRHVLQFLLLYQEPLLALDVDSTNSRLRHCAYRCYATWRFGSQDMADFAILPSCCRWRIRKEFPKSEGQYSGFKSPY
Test: THP-1 YoPro uptake assay (BzATP-stimulated Yo-Pro-1 uptake)
Type: cell-based
Conditions: Table F-10, THP-1 cells, read-out: mean pIC50 values for P2X7 antagonism (converted)
Description: The human monocytic cell line THP-1 was grown as a suspension culture in RPMI medium supplemented with 10% fetal bovine serum, penicillin/streptomycin (50 units/mL), 2 mM L-glutamine, and 20 μM 2-mercaptoethanol. Cells were maintained at a density below 0.5 million per mL. On the day of the assay, cells were washed twice with assay buffer, and then resuspended at 2 million per mL in assay buffer containing 2 μM Yo-Pro-1 (Invitrogen). The assay buffer contained (in mM): 280 sucrose, 5 KCl, 10 glucose, 10 HEPES, 5 N-methyl-D-glucamine. The cells were added at 200 k/well into poly-D-lysine-coated black-walled 96-well plates (Biocoat, Becton-Dickinson). Test compounds were dissolved in DMSO, and then added at the test concentration to each well of the 96-well plate. Concentration dependence of block was determined by exposing each well of cells in duplicate rows of a 96-well plate to a serial dilution of test compound. The concentration series usually started at 10 μM with a three-fold decrement in concentration. The final DMSO concentration seen by the cells was less than 0.5%. Cells were incubated with test compounds for 30 minutes at 37° C. A background reading was taken using a Gemini SpectraMax with 490 nm excitation and 530 nm emission. […] After incubation for 60 minutes at 37° C., an endpoint read was taken in the SpectraMax plate reader. The amount of block of the response was determined by comparing the fluorescence intensity in each well to the average of control wells on each plate. The control wells contained either a known antagonist of P2X7 (positive controls) or a concentration of DMSO equal to that in the test wells. Data were analyzed using a nonlinear regression program (Origin, OriginLab, MA). Results are reported as the −log of the IC50 (pIC50).

SMILES	IC50
C[C@@H]1CN(c2ccc3c(C(=O)NCC(c4cnc(C(F)(F)F)nc4)N4CCOCC4)c(Cl)ccc3n2)C[C@H](C)O1 (stereo partly drawn) [Compound 503]	37.2 nM
O=C(NCC(c1cnc(C(F)(F)F)nc1)N1CCOCC1)c1c(Cl)ccc2nc(N3CCNCC3)ccc12 (stereo not drawn) [Compound 504]	6.92 nM
CN1CCN(c2ccc3c(C(=O)NCC(c4cnc(C(F)(F)F)nc4)N4CCOCC4)c(Cl)ccc3n2)CC1 (stereo not drawn) [Compound 505]	5.13 nM
O=C(NCC(c1cnc(C(F)(F)F)nc1)N1CCOCC1)c1c(Cl)ccc2nc(N3CC[C@H](O)C3)ccc12 (stereo partly drawn) [Compound 506]	18.2 nM
O=C(NCC(c1cnc(C(F)(F)F)nc1)N1CCC(F)(F)CC1)c1c(Cl)ccc2nc(N3CC(O)(C(F)(F)F)C3)ccc12 (stereo not drawn) [Compound 509]	17.8 nM
O=C(NCC(c1cnc(C(F)(F)F)nc1)N1CCC(F)(F)CC1)c1c(Cl)ccc2nc(N3CC(CO)C3)ccc12 (stereo not drawn) [Compound 510]	3.47 nM
O=C(NCC(c1cnc(C(F)(F)F)nc1)N1CCC(F)(F)CC1)c1c(Cl)ccc2nc(NCCN3CCOCC3)ccc12 (stereo not drawn) [Compound 513]	5.13 nM
O=C(NCC(c1cnc(C(F)(F)F)nc1)N1CCC(F)(F)CC1)c1c(Cl)ccc2nc(N3CCC(c4n[nH]c(=O)[nH]4)CC3)ccc12 (stereo not drawn) [Compound 515]	5.62 nM
O=C(NCC(c1cnc(C(F)(F)F)nc1)N1CCC(F)(F)CC1)c1c(Cl)ccc2nc(N3CCC(n4cn[nH]c4=O)CC3)ccc12 (stereo not drawn) [Compound 518]	10.2 nM
O=C(NCC(c1cnc(C(F)(F)F)nc1)N1CCOCC1)c1c(Cl)ccc2nc(N3CCC4(CCCN4)C3)ccc12 (stereo not drawn) [Compound 519]	7.08 nM
O=C(NCC(c1cnc(C(F)(F)F)nc1)N1CCOCC1)c1c(Cl)ccc2nc(N3CCC4(CCCCN4)C3)ccc12 (stereo not drawn) [Compound 520]	9.55 nM
CNC1CN(c2ccc3c(C(=O)NCC(c4cnc(C(F)(F)F)nc4)N4CCOCC4)c(Cl)ccc3n2)C1 (stereo not drawn) [Compound 522]	24.5 nM
CN(CCN)c1ccc2c(C(=O)NCC(c3cnc(C(F)(F)F)nc3)N3CCOCC3)c(Cl)ccc2n1 (stereo not drawn) [Compound 523]	15.8 nM
O=C(NCC(c1cnc(C(F)(F)F)nc1)N1CCC(F)(F)CC1)c1c(Cl)ccc2nc(N3C[C@@H]4C[C@H]3CO4)ccc12 (stereo partly drawn) [Compound 530]	2.63 nM
O=C(NCC(c1cnc(C(F)(F)F)nc1)N1CCC(F)(F)CC1)c1c(Cl)ccc2nc(N3CCC4(CCCN4)C3)ccc12 (stereo not drawn) [Compound 531]	3.02 nM
O=C(NCC(c1cnc(C(F)(F)F)nc1)N1CCCCC1)c1c(Cl)ccc2nc(N3CCC(O)CC3)ccc12 (stereo not drawn) [Compound 546]	4.79 nM
O=C(NCC(c1cnc(C(F)(F)F)nc1)N1CCCCC1)c1c(Cl)ccc2nc(N3CCOCC3)ccc12 (stereo not drawn) [Compound 548]	1.91 nM
O=C(NCC(c1cnc(C(F)(F)F)nc1)N1CCCCC1)c1c(Cl)ccc2nc(N3CCNCC3)ccc12 (stereo not drawn) [Compound 549]	3.39 nM
O=C(NCC(c1cnc(C(F)(F)F)nc1)N1CCCCC1)c1c(Cl)ccc2nc(NCC(O)CO)ccc12 (stereo not drawn) [Compound 550]	2.34 nM
CS(=O)(=O)N[C@@H]1CCN(c2ccc3c(C(=O)NCC(c4cnc(C(F)(F)F)nc4)N4CCOCC4)c(Cl)ccc3n2)C1 (stereo partly drawn) [Compound 552]	17.8 nM
CS(=O)(=O)NCCNc1ccc2c(C(=O)NCC(c3cnc(C(F)(F)F)nc3)N3CCOCC3)c(Cl)ccc2n1 (stereo not drawn) [Compound 553]	17.4 nM
CC(=O)NC1CC2CCC(C1)N2c1ccc2c(C(=O)NCC(c3cnc(C(F)(F)F)nc3)N3CCOCC3)c(Cl)ccc2n1 (stereo not drawn) [Compound 555]	16.2 nM
O=C(NCC(c1cnc(C(F)(F)F)nc1)N1CCOCC1)c1c(Cl)ccc2nc(N3CCC4CNCC43)ccc12 (stereo not drawn) [Compound 559]	3.63 nM
O=C(NCC(c1cnc(C(F)(F)F)nc1)N1CCOCC1)c1c(Cl)ccc2nc(N3CC4CCNC4C3)ccc12 (stereo not drawn) [Compound 560]	4.9 nM
N[C@@H]1CCN(c2ccc3c(C(=O)NCC(c4cnc(C(F)(F)F)nc4)N4CCOCC4)c(Cl)ccc3n2)C1 (stereo partly drawn) [Compound 561]	1.35 nM
CN[C@@H]1CCN(c2ccc3c(C(=O)NCC(c4cnc(C(F)(F)F)nc4)N4CCOCC4)c(Cl)ccc3n2)C1 (stereo partly drawn) [Compound 562]	4.9 nM
N[C@H]1CCN(c2ccc3c(C(=O)NCC(c4cnc(C(F)(F)F)nc4)N4CCOCC4)c(Cl)ccc3n2)C1 (stereo partly drawn) [Compound 563]	0.851 nM
O=C(NCC(c1cnc(C(F)(F)F)nc1)N1CCOCC1)c1c(Cl)ccc2nc(N3C[C@@H]4CCCN[C@@H]4C3)ccc12 (stereo partly drawn) [Compound 564]	7.41 nM
O=C(NCC(c1cnc(C(F)(F)F)nc1)N1CCOCC1)c1c(Cl)ccc2nc(N3CC4CNC4C3)ccc12 (stereo not drawn) [Compound 565]	2.57 nM

Further lines, results first:

IC50	SMILES
13.8 nM	O=C(NCC(c1cnc(C(F)(F)F)nc1)N1CCOCC1)c1c(Cl)ccc2nc(N3CCOCC3)ccc12 (stereo not drawn) [Compound 502]
13.5 nM	O=C(NCC(c1cnc(C(F)(F)F)nc1)N1CCC(F)(F)CC1)c1c(Cl)ccc2nc(NCC3CC3)ccc12 (stereo not drawn) [Compound 507]
25.7 nM	O=C(NCC(c1cnc(C(F)(F)F)nc1)N1CCC(F)(F)CC1)c1c(Cl)ccc2nc(NCC(O)CO)ccc12 (stereo not drawn) [Compound 508]
4.79 nM	CN(CCN)c1ccc2c(C(=O)NCC(c3cnc(C(F)(F)F)nc3)N3CCC(F)(F)CC3)c(Cl)ccc2n1 (stereo not drawn) [Compound 511]
5.37 nM	NC1CN(c2ccc3c(C(=O)NCC(c4cnc(C(F)(F)F)nc4)N4CCOCC4)c(Cl)ccc3n2)C1 (stereo not drawn) [Compound 512]
7.59 nM	O=C(NCC(c1cnc(C(F)(F)F)nc1)N1CCOCC1)c1c(Cl)ccc2nc(NCCNCCO)ccc12 (stereo not drawn) [Compound 514]
9.77 nM	CC1(O)CCN(c2ccc3c(C(=O)NCC(c4cnc(C(F)(F)F)nc4)N4CCOCC4)c(Cl)ccc3n2)CC1 (stereo not drawn) [Compound 516]
8.51 nM	CNCCN(C)c1ccc2c(C(=O)NCC(c3cnc(C(F)(F)F)nc3)N3CCC(F)(F)CC3)c(Cl)ccc2n1 (stereo not drawn) [Compound 517]
13.8 nM	NCC1CCN(c2ccc3c(C(=O)NCC(c4cnc(C(F)(F)F)nc4)N4CCOCC4)c(Cl)ccc3n2)CC1 (stereo not drawn) [Compound 521]
30.2 nM	O=C(NCC(c1cnc(C(F)(F)F)nc1)N1CCOCC1)c1c(Cl)ccc2nc(N3CC4(CNC4)C3)ccc12 (stereo not drawn) [Compound 524]
52.5 nM	O=C(NCC(c1cnc(C(F)(F)F)nc1)N1CCOCC1)c1c(Cl)ccc2nc(N3CC4COCC4C3)ccc12 (stereo not drawn) [Compound 525]
56.2 nM	O=C(NCC(c1cnc(C(F)(F)F)nc1)N1CCOCC1)c1c(Cl)ccc2nc(N3C[C@@H]4C[C@H]3CO4)ccc12 (stereo partly drawn) [Compound 526]
77.6 nM	O=C(NCC(c1cnc(C(F)(F)F)nc1)N1CCOCC1)c1c(Cl)ccc2nc(NCC3CCOCC3)ccc12 (stereo not drawn) [Compound 527]
4.57 nM	NCC1CCN(c2ccc3c(C(=O)NCC(c4cnc(C(F)(F)F)nc4)N4CCC(F)(F)CC4)c(Cl)ccc3n2)CC1 (stereo not drawn) [Compound 528]
5.62 nM	O=C(NCC(c1cnc(C(F)(F)F)nc1)N1CCC(F)(F)CC1)c1c(Cl)ccc2nc(N3CCC4(CCCCN4)C3)ccc12 (stereo not drawn) [Compound 529]
1.45 nM	NCCNc1ccc2c(C(=O)NCC(c3cnc(C(F)(F)F)nc3)N3CCCCC3)c(Cl)ccc2n1 (stereo not drawn) [Compound 545]
3.47 nM	O=C(NCC(c1cnc(C(F)(F)F)nc1)N1CCCCC1)c1c(Cl)ccc2nc(NCCO)ccc12 (stereo not drawn) [Compound 547]
14.8 nM	CS(=O)(=O)N[C@H]1CCN(c2ccc3c(C(=O)NCC(c4cnc(C(F)(F)F)nc4)N4CCOCC4)c(Cl)ccc3n2)C1 (stereo partly drawn) [Compound 551]
12.6 nM	O=C(NCC(c1cnc(C(F)(F)F)nc1)N1CCOCC1)c1c(Cl)ccc2nc(NC3CCOCC3)ccc12 (stereo not drawn) [Compound 554]
1.15 nM	CN[C@H]1CCN(c2ccc3c(C(=O)NCC(c4cnc(C(F)(F)F)nc4)N4CCOCC4)c(Cl)ccc3n2)C1 (stereo partly drawn) [Compound 556]
1.12 nM	NCCNc1ccc2c(C(=O)NCC(c3cnc(C(F)(F)F)nc3)N3CCOCC3)c(Cl)ccc2n1 (stereo not drawn) [Compound 557]
2.51 nM	O=C(NCC(c1cnc(C(F)(F)F)nc1)N1CCOCC1)c1c(Cl)ccc2nc(N3CC4CNCC4C3)ccc12 (stereo not drawn) [Compound 558]
